Experimental data published in the supplement of paper PMC11208160.

Assay: recombinant barcode read abundance after kanamycin selection (control-corrected) (log10(CPM+1)); higher = more efficient recombination; sequences stand for … in AGTGCAGAGAAAATCGGCCAGTTTTCTCTGCCTGCAGTCCGCATGCCGT…AGATTTATGCAGCGGACTGCCTTTCTCCCAAAGTGATAAACCGGACAGTATCATGGACCGGTTTTCCCGGTAATCCGTATTTGCAAGGTTGGTTTCACT; site = the 11-nt target
Summary of the method: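 IS621 bridge RNA target-binding loops were paired with targets in a pooled library tested in E. coli. After co-electroporation with a donor plasmid, cells were plated in two replicates on chloramphenicol/ampicillin LB agar (control) and on chloramphenicol/ampicillin/kanamycin carrying 0.1 mM IPTG. Barcodes at recombinant junctions were counted as counts per million, averaged and control-corrected to give recombination efficiency. Values are log10(CPM+1).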
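Also: IS621 recombinase and bridge RNA in Escherichia coli cells.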

Sequence | recombinant barcode read abundance (log10)
AGCGCGACTTGGGTTCTAACCTGTTGCCT (site AGCGCGACTAG) | 0.381
AGCGCGACTTGGGTTCTAACCTGTTGCCT (site AGGACGACTAG) | 0.338
AGCGCTCCTTGGGTTCTAACCTGTTGCGT (site AGCCCTCCTAT) | 0.532
AGCGCTCCTTGGGTTCTAACCTGTTGCGT (site AGCGCTCCTAC) | 0.646
AGCGGGCCTTGGGTTCTAACCTGTTGCCT (site AGCGGACCTAG) | 0.382
AGCGGGCCTTGGGTTCTAACCTGTTGCCT (site AGCGGCCCTAG) | 1.08
AGCGGGCCTTGGGTTCTAACCTGTTGCCT (site AGCGGGCCTAG) | 0.313
AGCGGGCCTTGGGTTCTAACCTGTTGCCT (site AGCGGTCCTAG) | 0.072
AGCTAAACTTGGGTTCTAACCTGTTGCCT (site AGCTAAACTAG) | 0.256
AGCTAAACTTGGGTTCTAACCTGTTGCCT (site AGCTTATCTAG) | 0.141
AGCTACTCTTGGGTTCTAACCTGTTGCTT (site AGCTACTCTAA) | 0.694
AGCTACTCTTGGGTTCTAACCTGTTGCTT (site AGTTAATCTAA) | 0.144
AGCTCATCTTGGGTTCTAACCTGTTGCCT (site AGCTCACCTAG) | 0.0516
AGCTCATCTTGGGTTCTAACCTGTTGCCT (site AGCTCATCTAG) | 0.0912
AGCTTAGCTTGGGTTCTAACCTGTTGCCG (site AGCTTAGCTAG) | 0.14
AGCTTAGCTTGGGTTCTAACCTGTTGCCG (site AGCTTAGCTCG) | 0.19
AGCTTAGCTTGGGTTCTAACCTGTTGCCG (site AGCTTAGCTGG) | 0.0372
AGCTTAGCTTGGGTTCTAACCTGTTGCCG (site AGCTTAGCTTG) | 0.188
AGGAATTCTTGGGTTCTAACCTGTTGCCT (site AGAAATTCTAG) | 0.443
AGGAATTCTTGGGTTCTAACCTGTTGCCT (site AGCAATTCTAG) | 0.356
AGGAATTCTTGGGTTCTAACCTGTTGCCT (site AGGAATTCTAG) | 1.59
AGGAATTCTTGGGTTCTAACCTGTTGCCT (site AGTAATTCTAG) | 0
AGGACTTCTTGGGTTCTAACCTGTTGCCT (site AGGACTTCTAG) | 0.618
AGGACTTCTTGGGTTCTAACCTGTTGCCT (site AGGATTACTAG) | 0.704
AGGAGCCCTTGGGTTCTAACCTGTTGCTG (site AGGAGCCCTAA) | 0.0752
AGGAGCCCTTGGGTTCTAACCTGTTGCTG (site AGGAGCCCTCA) | 1.75

Sequence | recombinant barcode read abundance (log10)
AGGAGCCCTTGGGTTCTAACCTGTTGCTG (site AGGAGCCCTGA) | 0.0914
AGGAGCCCTTGGGTTCTAACCTGTTGCTG (site AGGAGCCCTTA) | 0.194
AGGAGCTCTTGGGTTCTAACCTGTTGCTA (site AGGAACTCTAA) | 0.131
AGGAGCTCTTGGGTTCTAACCTGTTGCTA (site AGGAGCTCTTA) | 1.27
AGGATAACTTGGGTTCTAACCTGTTGCCT (site AGGATAACTAG) | 0.655
AGGATAACTTGGGTTCTAACCTGTTGCCT (site AGGATACCTAG) | 0
AGGATACCTTGGGTTCTAACCTGTTGCCT (site AGGATAACTAG) | 0.219
AGGATACCTTGGGTTCTAACCTGTTGCCT (site AGGATACCTAG) | 1.56
AGGATATCTTGGGTTCTAACCTGTTGCCT (site AAGATATCTAG) | 0.114
AGGATATCTTGGGTTCTAACCTGTTGCCT (site ACGATATCTAG) | 0.14
AGGATATCTTGGGTTCTAACCTGTTGCCT (site AGGATATCTAG) | 0.559
AGGATATCTTGGGTTCTAACCTGTTGCCT (site ATGATATCTAG) | 0.261
AGGATCCCTTGGGTTCTAACCTGTTGCAT (site AGGATCCCTAT) | 1.99
AGGATCCCTTGGGTTCTAACCTGTTGCAT (site AGGATCCCTCT) | 1.07
AGGATTACTTGGGTTCTAACCTGTTGCCT (site AGGACTTCTAG) | 0.161
AGGATTACTTGGGTTCTAACCTGTTGCCT (site AGGATTACTAG) | 0.641
AGGCACTCTTGGGTTCTAACCTGTTGCTG (site AGGCACTCTCA) | 2.35
AGGCACTCTTGGGTTCTAACCTGTTGCTG (site TGGCACTCTAA) | 0.0921
AGGCATCCTTGGGTTCTAACCTGTTGCCT (site AAGCATCCTAG) | 0.32
AGGCATCCTTGGGTTCTAACCTGTTGCCT (site ACGCATCCTAG) | 0.202
AGGCATCCTTGGGTTCTAACCTGTTGCCT (site AGGCATCCTAG) | 0.147
AGGCATCCTTGGGTTCTAACCTGTTGCCT (site ATGCATCCTAG) | 0.0852
AGGCCGCCTTGGGTTCTAACCTGTTGCCG (site AGGCCGCCTCG) | 1.17
AGGCCGCCTTGGGTTCTAACCTGTTGCCG (site AGGCCGGCTCG) | 0.178
AGGGAGACTTGGGTTCTAACCTGTTGCCA (site AGGAAGACTTG) | 1.63
AGGGAGACTTGGGTTCTAACCTGTTGCCA (site AGGCAGACTTG) | 0.0382

Sequence | recombinant barcode read abundance (log10)
AGGGAGACTTGGGTTCTAACCTGTTGCCA (site AGGGAGACTTG) | 2.49
AGGGAGACTTGGGTTCTAACCTGTTGCCA (site AGGTAGACTTG) | 0.0182
AGGGAGACTTGGGTTCTAACCTGTTGCTT (site AGGGAGACTAA) | 2.39
AGGGAGACTTGGGTTCTAACCTGTTGCTT (site AGGGATACTAA) | 0.25
AGGGCCTCTTGGGTTCTAACCTGTTGCAG (site AGGGCCTCTCT) | 2.73
AGGGCCTCTTGGGTTCTAACCTGTTGCAG (site GGGGCCTCTTT) | 0.118
AGGGCGCCTTGGGTTCTAACCTGTTGCTT (site AGGGCGCCTAA) | 1.18
AGGGCGCCTTGGGTTCTAACCTGTTGCTT (site CATTTAGCTCC) | 0.822
AGGGGAGCTTGGGTTCTAACCTGTTGCCT (site AGGGAAGCTAG) | 1.12
AGGGGAGCTTGGGTTCTAACCTGTTGCCT (site AGGGCAGCTAG) | 0.109
AGGGGAGCTTGGGTTCTAACCTGTTGCCT (site AGGGGAGCTAG) | 1.61
AGGGGAGCTTGGGTTCTAACCTGTTGCCT (site AGGGTAGCTAG) | 0.315
AGGTAGACTTGGGTTCTAACCTGTTGCTA (site AGGTAGACTTA) | 2.44
AGGTAGACTTGGGTTCTAACCTGTTGCTA (site GGGTACACTTA) | 0.303
AGGTCACCTTGGGTTCTAACCTGTTGCAT (site AGGTCACCTAA) | 0.129
AGGTCACCTTGGGTTCTAACCTGTTGCAT (site AGGTCACCTAC) | 0.62
AGGTCACCTTGGGTTCTAACCTGTTGCAT (site AGGTCACCTAG) | 0.128
AGGTCACCTTGGGTTCTAACCTGTTGCAT (site AGGTCACCTAT) | 2.12
AGGTCCTCTTGGGTTCTAACCTGTTGCTT (site AGGTCCTCTAA) | 1.13
AGGTCCTCTTGGGTTCTAACCTGTTGCTT (site AGGTCCTCTAC) | 0.715
AGGTCCTCTTGGGTTCTAACCTGTTGCTT (site AGGTCCTCTAG) | 0.954
AGGTCCTCTTGGGTTCTAACCTGTTGCTT (site AGGTCCTCTAT) | 1.2
AGGTCGGCTTGGGTTCTAACCTGTTGCCT (site AGATCGGCTAG) | 0.329
AGGTCGGCTTGGGTTCTAACCTGTTGCCT (site AGGTCGGCTAG) | 1.24
AGGTCGTCTTGGGTTCTAACCTGTTGCCT (site AAGTCGTCTAG) | 0
